Source: patent publication US20210187014A1 (The Regents of the University of Colorado, a body corporate, priority 2018, published 2021)

How the values were obtained:
[1] = system: C. elegans; assay: C. elegans larval growth assay: heat-killed E. coli plus trace live E. coli, worm volume; format: in vivo; settings: for worm growth with dietary supplementation: worms fed heat-killed E. coli plus live entA- or entF- mutant E. coli (Ent-deficient food)
Source text: In one embodiment of the inventive technology, the present inventors created a unique assay to facilitate the identification of microbial metabolites that benefit growth and development of host animals. […] This unique feeding condition was used to search for E. coli mutants that fail to support normal worm growth, potentially due to their inability to provide specific metabolites to benefit host animals.
E. coli Keio collection screen. Preparation of heat-killed (HK) OP50 plates followed the procedure described previously (Qi et al., 2017). Standard overnight culture of E. coli OP50 grown in LB broth was concentrated to 1/10 vol and was then heat-killed in a 75° C. water bath for 90 min. The 150 µl of the HK-OP50 was spread onto one side of NGM plate. For preparation of bacterial mutant assay plates, E. coli Keio (Baba et al., 2006) mutants were grown overnight at 37° C. in LB medium with […] kanamycin. 0.2 uL of the bacterial culture (OD600) were seeded to the other side of HK OP50 plate. About 300 synchronized L1 worms were added to the screen plate, and cultured at 20° C., then scored for worm size at day 3 and day 4. The entire library was used for the primary screen; each bacterial mutant was screened once. For the secondary screen, 200 candidate mutants were screened (3 replicates) to confirm the slow growth phenotype.
Chemical supplementation of culture plates. For chemical supplementation, each chemical was dissolved in water or DMSO to generate a stock. The stock solution was added to HK OP50 and then spotted onto NGM plates. […] For CaEDTA supplementation (Kiang et al., 2014), 50 ul of CaEDTA (50 ug/ul) was spread onto the center of the NGM plates seeded with OP50, then different volume of the FeCl3[175 ug/ul] […] Bacterial growth analyses. Overnight cultures were diluted to a final OD600=0.01 in 200 μL of NGM liquid medium. Bacteria were grown in 96-well plates with shaking in a Synergy2 plate reader (BioTek) at 37° C. for 17 h. The OD600 was recorded at 20 min intervals.
Analysis of larval growth by measuring worm size. Synchronized L1 worms were seeded on the indicated NGM plate and grew to the indicated times. Photos were taken and worms volume in each photo were measured by WormSizer software (Moore et al., 2013).

[2] = target: T1, ATP5A1 (Homo sapiens, UniProt P25705); assay: Biotin-Ent binding to ATP5A1 (pulldown from HEK293T cells and in vitro binding assay); settings: excess, free Ent
T1 construct: His
T1 sequence (P25705 44-553): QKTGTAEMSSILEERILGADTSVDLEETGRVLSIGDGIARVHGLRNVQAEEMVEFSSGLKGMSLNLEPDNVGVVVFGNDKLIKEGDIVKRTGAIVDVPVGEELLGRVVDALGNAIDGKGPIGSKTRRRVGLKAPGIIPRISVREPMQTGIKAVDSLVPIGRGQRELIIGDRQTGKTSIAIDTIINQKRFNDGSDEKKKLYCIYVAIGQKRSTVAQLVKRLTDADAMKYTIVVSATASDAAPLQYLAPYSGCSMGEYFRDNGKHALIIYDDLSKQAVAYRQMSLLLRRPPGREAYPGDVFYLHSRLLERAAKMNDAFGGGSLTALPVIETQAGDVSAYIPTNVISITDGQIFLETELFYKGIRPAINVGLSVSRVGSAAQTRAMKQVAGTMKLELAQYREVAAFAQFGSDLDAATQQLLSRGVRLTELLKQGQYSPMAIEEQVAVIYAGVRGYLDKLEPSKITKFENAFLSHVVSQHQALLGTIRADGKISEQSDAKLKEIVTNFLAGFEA
Source text: Sequence alignment indicates 78% identity between the ATP synthase a-subunits from C. elegans (ATP-1, Wormbase; SEQ ID NO. 7) and humans (ATP5A1, NCBI; SEQ ID NO. 8) (FIG. 11D). […] To test if this Ent-ATP-1 function is conserved in mammals, the present inventors repeated the prior described biotin-Ent pulldown assay (FIG. 3A) using total protein extracts from human HEK293T cells cultured +/− Biotin-Ent.
In vitro binding assay. (a) Ent-biotin pull-down of total proteins: Ent-biotin and streptavidin beads were used to pull down interacting proteins from worm total protein extracts (same method as that in initial screen for Ent-binding proteins). Western blots were performed to detect ATP-1 (Thermo Fisher 43-9800). […] The assay was then quenched with a standard 5×SDS-PAGE_loading buffer (reducing). Proteins were separated by SDS-PAGE and transferred to_nitrocellulose membranes. The membranes were blocked for 1 h with 5% BSA in Trisbuffered saline (TBS) with 0.1% Tween 20 (TBST) at room temperature, followed by incubation for 1 h with horseradish peroxidase streptavidin (Cell Signaling_Technology,3999S) in TBST. After four washes with changes every 15 min in TBST, the_biotinylated proteins were visualized by enhanced chemiluminescence (GE Healthcare,_RPN2232). […] After IP, the amount of 55Fe was determined by liquid scintillation.

[3] = target: T1, ATP5A1; assay: 55FeCl3 +/- Ent in HEK293T cell lysates, ATP5A1 immunoprecipitation; format: binding
[4] = system: murine intestinal epithelial (MODE-K) cells; assay: Cellular iron level by Calcein AM fluorescence in MODE-K cells +/- DFO; format: cell-based, mouse
Procedure: The present inventors then created a low-iron condition by adding an iron chelator, Deferoxamine (DFO) to the medium (FIG. 18A). […] The assay was also performed using mouse intestinal epithelial (MODE-K) cells.

[5] = system: liposomes; assay: Iron traffic across the lipid bilayer of synthetic liposomes +/- ATPSα; format: biochemical
Procedure: ATPSα (ATP-1 or ATP5A1) was added to the liposome by an established method. […] The Calcein AM dye was added to liposomes +/− ATPSα and the fluorescence intensity of the liposome was measured; (B) Liposomes were incubated with radiolabel ed Fe^3+ (''FeCl3) and the radioactivity (relative CPM) of the liposome was measured. Method (A) measures iron inside the liposome, since calcein AM is only inside.

[6] = Ent stability by CAS liquid assay; format: physicochemical
Source text: FIG. 25. […] Degradation is indicated by increased absorbance. […] Degradation is indicated by increased relative fluorescence. […] For all tests, dilutions were kept at room temp and exposed to light. Error is standard deviation of the mean.

[7] = system: C. elegans smf-3/DMT1 mutant; assay: Growth of iron-deficient C. elegans smf-3/DMT1(-) mutant with iron chelator 2,2'-bipyridyl; format: in vivo
Procedure: FIG. 26. […] All tests were done on a smf-3/DMT1(-) mutant strain in a culture media where an iron chelator (2,2′-bipyridyl) was added to reduce the environmental iron level (FIG. 26A). […] This growth delay was rescued by supplementation with Ent, scored as the percentage of the population at the indicated growth stage. […] The entP,fepA: E. coli mutant cannot synthesize or utilize Enterobactin.
SMF-3/DMT1 is a conserved divalent metal transporter that transports iron into intestinal cells. The smf-3/DMT1 mutant has been established as an iron deficiency model in C. elegans. These mutants have defective iron uptake that results in iron deficiency (Romney et al 2011) and delayed growth under iron-poor growth conditions created by addition of an iron chelator (2,2′-bipyridyl) to the culture media (Raj an et al 2019).
To determine if the Enterobactin supplementation was benefiting the worm directly or benefiting the worm through an E. coli-dependent mechanism, the test was repeated using an E. coli double mutant that cannot synthesize or utilize Ent (entP,fepk).

O=C(N[C@H]1COC(=O)[C@@H](NC(=O)c2cccc(O)c2O)COC(=O)[C@@H](NC(=O)c2cccc(O)c2O)COC1=O)c1cccc(O)c1O [Ent, enterobactin]
rescue of worm growth by Ent supplementation ([1]; RNAi of atp-1 (not ctl-2)): prevented the rescue of worm growth | worm growth ([1]; ferric chloride added to live wild-type E. coli, with heat-killed E. coli): this growth defect was suppressed | worm growth with dietary supplementation [1]: completely overcome | worm growth with dietary supplementation ([1]; listed as Enterobactin): recovers the growth defect seen with entF- | development of worms ([1]; worms fed only heat-killed bacteria): did not result in any appreciable effect | competition of biotin-Ent binding to ATP5A1 [2]: effectively competed away | level of 55Fe in ATP5A1-IP samples [3]: increased | effect on cellular iron level ([4]; iron-poor/DFO condition): more pronounced | cellular iron level ([4]; standard medium): modestly increased the cellular iron level | level of iron inside the liposome (Calcein AM) ([5]; FeCl3 +/- Ent 1.5 uM): clearly boosted | level of iron associated with the liposome (radioactivity) ([5]; radiolabeled FeCl3 +/- Ent 1.5 uM): clearly boosted | stability ([6]; 100% DMSO, room temp, light): little change during the assay period | stability in H2O at varying pH ([6]; H2O pH 6.5/7): more stable than the other dilutions in acidic and basic H2O | time of rapid degradation ([6]; H20 (pH 5.5) with 10% DMSO, room temp, light): ≤ 60 min | stability in deionized water ([6]; pH 5.5): highly unstable | growth of smf-3(-) mutants ([7]; E. coli double mutant that cannot synthesize or utilize Ent): rescued the growth of smf-3(-) mutants to adulthood | growth of smf-3(-) mutants ([7]; iron chelator 2,2'-bipyridyl in media): rescued the growth of smf-3(-) mutants to adulthood
